Laboratory results as given in patent US12180169B1, “4-[4,4-bis(4-bromophenyl)-5-oxo-2-thioxoimidazolidin-1-yl]butanoic acid as an antimicrobial compound” (KING FAISAL UNIVERSITY, priority 2023, dated 2024).

Assays:
Assay type in all cases: cell-based
Conditions in all cases: after 10, 20, 40 and 60 min at all dilutions 1:100, 1:200, 1:400, 1:800
Escherichia coli = test: Antimicrobial testing by agar dilution, Escherichia coli
Description: (§1) The antimicrobial properties of the 4-[4,4-bis(4-bromophenyl)-2,5-dioxoimidazolidin-1-yl]butanoic acid were studied by the method of agar dilution. Test solutions of each compound was prepared in concentration of 1% using dimethylformamide as a solvent then they are diluted in physiological solution to obtain the final experimental dilutions 1:100, 1:200, 1:400, 1:800. The effect of these substances are compared with furacillin in a controlable study. The testing microbes used were gram positive bacteria Staphylococcus aereus, gram negative bacteria Escherichia coli, Pseudomonas aeruginosa and Candida albicans fungi were taken. The experiments used for this survey were meat-pentonlu agar (EPA) for cultivation of bacteria and Saburo environment for fungi. Each experiment used 1 ml of test solution on each plate 500 min. Add 2 drops of emulsified with microbes feel. All experimental samples were taken from the agar after 10, 20, 40, 60 minutes in the environment on the basis of Patrk planted. Bacteria were cultivated at a temperature of 37° C. for 1 day and the mushroom was kept in a thermostat for […] at a temperature of 28° C. in the. Then results were checked.

Staphylococcus aereus = test: Antimicrobial testing by agar dilution, Staphylococcus aereus
Description: as §1

Candida albicans = test: Antimicrobial testing by agar dilution, Candida albicans fungi
Description: as §1

Pseudomonas aeruginosa = test: Antimicrobial testing by agar dilution, Pseudomonas aeruginosa
Description: as §1

Measured: inhibition activity (summary in words)

O=C(O)CCCN1C(=O)C(c2ccc(Br)cc2)(c2ccc(Br)cc2)NC1=S [4-[4,4-bis(4-bromophenyl)-5-oxo-2-thioxoimidazolidin-1-yl]butanoic acid]
higher inhibition activity: all assays above
